Measured values published in ChEMBL document CHEMBL5042526, “Design, Synthesis, and Biological Evaluation of Triazolone Derivatives as Potent PPARα/δ Dual Agonists for the Treatment of Nonalcoholic Steatohepatitis” (J Med Chem, 2022).
The source made the active and inactive calls.

Tests used:
[1] = biological target: T1, Peroxisome proliferator-activated receptor alpha (Mus musculus, UniProt P23204); assay: Agonist activity at mouse PPARalpha transfected in Cos7 cells co-expressing with pBIND and pGL4.35 Gal4 UAS Luc reporter plasmid by measuring luciferase activity incubated for 16 hrs by luciferase reporter gene assay
T1 sequence (P23204 whole entry): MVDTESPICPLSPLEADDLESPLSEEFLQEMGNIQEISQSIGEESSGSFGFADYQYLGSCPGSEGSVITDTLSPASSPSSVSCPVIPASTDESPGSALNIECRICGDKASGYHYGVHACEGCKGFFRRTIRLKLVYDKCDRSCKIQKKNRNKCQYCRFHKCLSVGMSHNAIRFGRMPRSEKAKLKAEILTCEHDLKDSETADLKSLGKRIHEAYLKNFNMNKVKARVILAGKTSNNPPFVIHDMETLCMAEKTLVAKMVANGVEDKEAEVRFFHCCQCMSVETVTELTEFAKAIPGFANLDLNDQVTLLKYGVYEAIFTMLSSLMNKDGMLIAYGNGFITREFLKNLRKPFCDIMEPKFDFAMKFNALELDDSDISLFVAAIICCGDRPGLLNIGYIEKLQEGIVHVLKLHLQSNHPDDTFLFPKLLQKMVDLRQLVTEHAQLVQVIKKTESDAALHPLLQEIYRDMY

[2] = system: HepG2; assay: Agonist activity against PPARalpha/delta (unknown origin) assessed as upregulation of CPT1A mRNA expression in human HepG2 cells incubated for 12 hrs by RT-PCR analysis; type: cell-based; settings: filed as agonist, dose 8-200 nM
[3] = system: Mus musculus; assay: In vivo agonist activity at PPARalpha/delta assessed as upregulation of Fads2 mRNA expression in C57BL/6Nifdc mouse liver at 10 mg/kg, po for 4 days; type: functional, organism-based; settings: time 4.0 day
[4] = system: Mus musculus; assay: In vivo agonist activity at PPARalpha/delta assessed as upregulation of Cdkn1a mRNA expression in C57BL/6Nifdc mouse liver at 10 mg/kg, po for 4 days; type: functional, organism-based; settings: time 4.0 day
[5] = system: Mus musculus; assay: In vivo agonist activity at PPARalpha/delta assessed as upregulation of Kit11 mRNA expression in C57BL/6Nifdc mouse liver at 10 mg/kg, po for 4 days; type: functional, organism-based; settings: time 4.0 day
[6] = system: Mus musculus; assay: In vivo agonist activity at PPARalpha/delta assessed as upregulation of Lipa mRNA expression in C57BL/6Nifdc mouse liver at 10 mg/kg, po for 4 days; type: functional, organism-based; settings: time 4.0 day
[7] = system: Mus musculus; assay: In vivo agonist activity at PPARalpha/delta assessed as upregulation of Gpd1 mRNA expression in C57BL/6Nifdc mouse liver at 10 mg/kg, po for 4 days; type: functional, organism-based; settings: time 4.0 day
[8] = system: Mus musculus; assay: In vivo agonist activity at PPARalpha/delta assessed as upregulation of Retsat-mRNA expression in C57BL/6Nifdc mouse liver at 10 mg/kg, po for 4 days; type: functional, organism-based; settings: time 4.0 day
[9] = system: Mus musculus; assay: In vivo agonist activity against PPARalpha/delta assessed as upregulation of Fabp1 mRNA expression in C57BL/6Nifdc mouse liver at 10 mg/kg, po for 4 days; type: functional, organism-based; settings: time 4.0 day
[10] = system: Mus musculus; assay: In vivo agonist activity against PPARalpha/delta assessed as upregulation of Me1 mRNA expression in C57BL/6Nifdc mouse liver at 10 mg/kg, po for 4 days; type: functional, organism-based; settings: time 4.0 day
[11] = system: Mus musculus; assay: In vivo agonist activity against PPARalpha/delta assessed as upregulation of Aldh3a2 mRNA expression in C57BL/6Nifdc mouse liver at 10 mg/kg, po for 4 days; type: functional, organism-based; settings: time 4.0 day
[12] = system: Mus musculus; assay: In vivo agonist activity against PPARalpha/delta assessed as upregulation of Pdk4 mRNA expression in C57BL/6Nifdc mouse liver at 10 mg/kg, po for 4 days; type: functional, organism-based; settings: time 4.0 day
[13] = system: Mus musculus; assay: In vivo agonist activity against PPARalpha/delta assessed as upregulation of Vnn1 mRNA expression in C57BL/6Nifdc mouse liver at 10 mg/kg, po for 4 days; type: functional, organism-based; settings: time 4.0 day
[14] = system: Mus musculus; assay: In vivo agonist activity against PPARalpha/delta assessed as upregulation of Cd36 mRNA expression in C57BL/6Nifdc mouse skeletal muscle at 10 mg/kg, po for 4 days; type: functional, organism-based; settings: time 4.0 day
[15] = system: Mus musculus; assay: In vivo agonist activity against PPARalpha/delta assessed as upregulation of Angptl4 mRNA expression in C57BL/6Nifdc mouse skeletal muscle at 10 mg/kg, po for 4 days; type: functional, organism-based; settings: time 4.0 day
[16] = biological target: T2, Nuclear receptor subfamily 1 group I member 2 (Homo sapiens, UniProt O75469); assay: Agonist activity at human PXR (138 to 434 residues) in Cos7 cells transfected with LBD-Gal4 and pGL435 Gal4 UAS Luc reporter plasmid at 10 uM by reporter gene assay; type: cell-based; settings: cos7, 10 µM
T2 sequence (O75469 whole entry): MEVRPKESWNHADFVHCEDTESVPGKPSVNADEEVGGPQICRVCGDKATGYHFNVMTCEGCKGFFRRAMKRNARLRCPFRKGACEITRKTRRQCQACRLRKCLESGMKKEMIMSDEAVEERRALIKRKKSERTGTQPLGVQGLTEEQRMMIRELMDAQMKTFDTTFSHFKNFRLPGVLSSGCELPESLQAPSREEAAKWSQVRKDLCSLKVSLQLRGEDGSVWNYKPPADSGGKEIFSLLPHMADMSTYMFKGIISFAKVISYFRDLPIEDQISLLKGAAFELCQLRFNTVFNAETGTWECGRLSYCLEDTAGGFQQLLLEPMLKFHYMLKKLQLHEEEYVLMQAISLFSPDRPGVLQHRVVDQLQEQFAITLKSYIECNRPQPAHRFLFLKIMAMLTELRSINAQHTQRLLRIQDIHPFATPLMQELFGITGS

[17] = Microsomal stability in human liver microsomes assessed as terminal elimination half life at 1 uM measured upto 60 mins by LC-MS/MS-11 analysis; type: ADME, Microsome
[18] = system: Mus musculus; assay: Anti-fibrosis effect in HF-CDAA-induced nonalcoholic steatohepatitis C57BL/6JNifdc mouse model assessed as expression of Acta2 marker at 10 mg/kg, po after 20 hrs by Western blot analysis; type: functional, organism-based
[19] = system: Mus musculus; assay: Anti-fibrosis effect in HF-CDAA-induced nonalcoholic steatohepatitis C57BL/6JNifdc mouse model assessed as expression of Col1a1 marker at 10 mg/kg, po after 20 hrs by Western blot analysis; type: functional, organism-based
[20] = system: Mus musculus; assay: Anti-fibrosis effect in CCl4 induced liver fibrosis C57BL/6JNifdc mouse model assessed as downregulation of alpha-SMA expression at 3 to 30 mg/kg, po after 20 hrs by Western blot analysis; type: functional, organism-based; settings: dose 3-30 mg/kg
[21] = system: C2C12; assay: Agonist activity against PPARalpha/delta ( unknown origin) assessed as upregulation of Pdk4 mRNA expression in […] cells incubated for 12 hrs by RT-PCR analysis; type: cell-based; settings: filed as agonist, dose 8-200 nM
[22] = system: AML12; assay: Agonist activity against PPARalpha/delta (unknown origin) assessed as upregulation of Cpt1A mRNA expression in […] cells at 8 nM incubated for 12 hrs by RT-PCR analysis; type: cell-based; settings: filed as agonist
[23] = system: AML12; assay: Agonist activity against PPARalpha/delta (unknown origin) assessed as upregulation of Pdk4 mRNA expression in […] cells at 8 nM incubated for 12 hrs by RT-PCR analysis; type: cell-based; settings: filed as agonist

Cc1cc(Cn2ncn(-c3ccc(OC(F)(F)F)cc3)c2=O)cc(C)c1OC(C)(C)C(=O)O
> 2 h: half-life at 1 µM [17]
16.8 nM: EC50 [1]
Not Active: Activity [16]
active: Activity [2] Dose-Dependent Effect | Activity [3] | Activity [4] | Activity [5] | Activity [6] | Activity [7] | Activity [8] | Activity [9] | Activity [10] | Activity [11] | Activity [12] | Activity [13] | Activity [14] | Activity [15] | Activity [18] | Activity [19] | Activity [20] | Activity [21] Dose-Dependent Effect | Activity [22] | Activity [23]
